{
  "source": "patent US10092551B2",
  "about": "“Spiro-thiazolones” (Hoffmann-La Roche Inc., priority 2014, dated 2018)",
  "data": [
    {"target": "human V1a receptor (Homo sapiens (Human), UniProt P37288)", "sequence (P37288 whole entry)": "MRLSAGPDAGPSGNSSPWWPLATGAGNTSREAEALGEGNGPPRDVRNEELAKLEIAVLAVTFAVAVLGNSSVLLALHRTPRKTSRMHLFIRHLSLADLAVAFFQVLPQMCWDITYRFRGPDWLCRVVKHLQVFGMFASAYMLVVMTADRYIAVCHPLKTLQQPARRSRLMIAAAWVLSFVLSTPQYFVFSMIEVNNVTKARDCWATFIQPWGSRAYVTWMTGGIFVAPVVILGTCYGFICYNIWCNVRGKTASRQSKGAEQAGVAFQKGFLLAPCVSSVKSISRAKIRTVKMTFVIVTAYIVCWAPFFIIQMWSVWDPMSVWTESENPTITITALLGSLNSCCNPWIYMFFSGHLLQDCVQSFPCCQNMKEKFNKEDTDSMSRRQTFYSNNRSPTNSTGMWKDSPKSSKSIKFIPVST", "test": "human V1a receptor binding studies (3H-Vasopressin, SPA beads)", "settings": "membranes of HEK293 cells transiently transfected with human V1a receptor, Ki by Cheng-Prussoff", "protocol": "The human V1a receptor was cloned by RT-PCR from total human liver RNA. The coding sequence was subcloned in an expression vector after sequencing to confirm the identity of the amplified sequence. […] Cell membranes were prepared from HEK293 cells transiently transfected with the expression vector and grown in 20 liter fermenters with the following protocol.\n50 g of cells are re-suspended in 30 ml freshly prepared ice cold Lysis buffer (50 mM HEPES, 1 mM EDTA, 10 mM MgCl2 adjusted to pH=7.4+complete cocktail of protease inhibitor (Roche Diagnostics)). Homogenized with Polytron for 1 min and sonicated on ice for 2×2 minutes at 80% intensity (Vibracell sonicator). The preparation is centrifuged 20 min at 500 g at 4° C., the pellet is discarded and the supernatant centrifuged 1 hour at 43,000 g at 4° C. (19,000 rpm). The pellet is re-suspended in 12.5 ml Lysis buffer+12.5 ml Sucrose 20% and homogenized using a Polytron for 1-2 min. The protein concentration is determined by the Bradford method and aliquots are stored at −80° C. until use. For binding studies 60 mg Yttrium silicate SPA beads (Amersham) are mixed with an aliquot of membrane in binding buffer (50 mM Tris, 120 mM NaCl, 5 mM KCl, 2 mM CaCl2, 10 mM MgCl2) for 15 minutes with mixing. 50 μl of bead/membrane mixture is then added to each well of a 96 well plate, followed by 50 μl of 4 nM 3H-Vasopressin (American Radiolabeled Chemicals). For total binding measurement 100 μl of binding buffer are added to the respective wells, for non-specific binding 100 μl of 8.4 mM cold vasopressin and for compound testing 100 μl of a serial dilution of each compound in 2% DMSO. The plate is incubated 1 h at room temperature, centrifuged 1 min at 1000 g and counted on a Packard Top-Count. Non-specific binding counts are subtracted from each well and data is normalized to the maximum specific binding set at 100%. To calculate an IC 50 the curve is fitted using a non-linear regression model (XLfit) and the Ki is calculated using the Cheng-Prussoff equation.", "values": [
      {"molecule": "C/C(=C1/SC(N2CCC3(CC2)OC(=O)c2ccccc23)=NC1=O)c1ccc(Cl)nc1", "note": "[Example 137, 1′-{(5Z)-5-[1-(6-chloropyridin-3-yl)ethylidene]-4-oxo-4,5-dihydro-1,3-thiazol-2-yl}-3H-spiro[2-benzofuran-1,4′-piperidin]-3-one]", "pKi hV1a": 8.0},
      {"molecule": "C=C/C(C)=C1\\SC(N2CCC3(CC2)OCc2ccccc23)=NC1=O", "note": "[Example 70, (5E/Z)-5-(but-3-en-2-ylidene)-2-(1′H,3H-spiro[2-benzofuran-1,4′-piperidin]-1′-yl)-1,3-thiazol-4(5H)-one]", "pKi hV1a": 7.6},
      {"molecule": "C/C(=C1\\SC(N2CCC3(CC2)OC(=O)c2ccccc23)=NC1=O)c1ccc(C)nc1", "note": "[Example 136, 1′-{(5E)-5-[1-(6-methylpyridin-3-yl)ethylidene]-4-oxo-4,5-dihydro-1,3-thiazol-2-yl}-3H-spiro[2-benzofuran-1,4′-piperidin]-3-one]", "pKi hV1a": 7.5},
      {"molecule": "O=C1N=C(N2CCC3(CC2)OCc2ccccc23)S/C1=C1/CC2C3CC4C2C4C13", "note": "(stereo not shown) [Example 55, (5E/Z)-5-[hexahydro-1,2,4-(methanetriyl)pentalen-5(1H)-ylidene]-2-(1′H,3H-spiro[2-benzofuran-1,4′-piperidin]-1′-yl)-1,3-thiazol-4(5H)-one]", "pKi hV1a": 8.3},
      {"molecule": "O=C1N=C(N2CCC3(CC2)OC(=O)c2ccccc23)S/C1=C(\\CO)c1ccccc1", "note": "[Example 142, 1′-[(5Z)-5-(2-hydroxy-1-phenylethylidene)-4-oxo-4,5-dihydro-1,3-thiazol-2-yl]-3H-spiro[2-benzofuran-1,4′-piperidin]-3-one]", "pKi hV1a": 8.4},
      {"molecule": "O=C1N=C(N2CCC3(CC2)OCc2ccccc23)S/C1=C\\c1cccnc1", "note": "[Example 94, 5-(pyridin-3-ylmethylidene)-2-(1′H,3H-spiro[2-benzofuran-1,4′-piperidin]-1′-yl)-1,3-thiazol-4(5H)-one]", "pKi hV1a": 7.1},
      {"molecule": "C/C(=C1\\SC(N2CCC3(CC2)OCc2ccccc23)=NC1=O)C1CCCCC1", "note": "[Example 28, (5E)-5-(1-cyclohexylethylidene)-2-(1′H,3H-spiro[2-benzofuran-1,4′-piperidin]-1′-yl)-1,3-thiazol-4(5H)-one]", "pKi hV1a": 7.9},
      {"molecule": "C/C(=C1/SC(N2CCC3(CC2)OCc2ccccc23)=NC1=O)c1ccccc1", "note": "[Example 151, (5Z)-5-(1-phenylethylidene)-2-(1′H,3H-spiro[2-benzofuran-1,4′-piperidin]-1′-yl)-1,3-thiazol-4(5H)-one]", "pKi hV1a": 9.2},
      {"molecule": "O=C1N=C(N2CCC3(CC2)OCc2ccccc23)S/C1=C1/CCCc2c(Cl)cccc21", "note": "[Example 19, (5E/Z)-5-(5-chloro-3,4-dihydronaphthalen-1(2H)-ylidene)-2-(1′H,3H-spiro[2-benzofuran-1,4′-piperidin]-1′-yl)-1,3-thiazol-4(5H)-one]", "pKi hV1a": 7.7},
      {"molecule": "O=C1N=C(N2CCC3(CC2)OCc2ncccc23)S/C1=C1/COCc2ccccc21", "note": "[Example 168, (5E/Z)-5-(1H-isochromen-4(3H)-ylidene)-2-(1′H,7H-spiro[furo[3,4-b]pyridine-5,4′-piperidin]-1′-yl)-1,3-thiazol-4(5H)-one]", "pKi hV1a": 8.2},
      {"molecule": "[2H]C([2H])([2H])/C(=C1\\SC(N2CCC3(CC2)OCc2ccccc23)=NC1=O)c1ccc(Cl)nc1", "note": "[Example 172]", "pKi hV1a": 8.9},
      {"molecule": "O=C1N=C(N2CCC3(CC2)OCc2ccccc23)SC1=C(c1cccnc1)c1cccnc1", "note": "[Example 119, 5-[di(pyridin-3-yl)methylidene]-2-(1′H,3H-spiro[2-benzofuran-1,4′-piperidin]-1′-yl)-1,3-thiazol-4(5H)-one]", "pKi hV1a": 7.6},
      {"molecule": "C/C(=C1/SC(N2CCC3(CC2)OCc2ccccc23)=NC1=O)c1ccccc1F", "note": "[Example 40, (5E/Z)-5-[1-(2-fluorophenyl)ethylidene]-2-(1′H,3H-spiro[2-benzofuran-1,4′-piperidin]-1′-yl)-1,3-thiazol-4(5H)-one]", "pKi hV1a": 8.9},
      {"molecule": "O=C1N=C(N2CCC3(CC2)OCc2ccccc23)SC1=C(c1ccc(F)cc1)c1ccc(F)cc1", "note": "[Example 101, 5-[bis(4-fluorophenyl)methylidene]-2-(1′H,3H-spiro[2-benzofuran-1,4′-piperidin]-1′-yl)-1,3-thiazol-4(5H)-one]", "pKi hV1a": 8.0},
      {"molecule": "C/C(=C1/SC(N2CCC3(CC2)OCc2ccccc23)=NC1=O)c1cccc(Cl)c1", "note": "[Example 12, (5E/Z)-5-[1-(3-chlorophenyl)ethylidene]-2-(1′H,3H-spiro[2-benzofuran-1,4′-piperidin]-1′-yl)-1,3-thiazol-4(5H)-one]", "pKi hV1a": 8.2},
      {"molecule": "C/C(CN)=C1\\SC(N2CCC3(CC2)OCc2ccccc23)=NC1=O.Cl", "note": "[Example 66, (5E)-5-(1-aminopropan-2-ylidene)-2-(1′H,3H-spiro[2-benzofuran-1,4′-piperidin]-1′-yl)-1,3-thiazol-4(5H)-one hydrochloride (1:1)]", "pKi hV1a": 6.6},
      {"molecule": "C/C(=C1/SC(N2CCC3(CC2)OCc2ccccc23)=NC1=O)c1ccccc1", "note": "[Example 16, (5E/Z)-5-(1-phenylethylidene)-2-(1′H,3H-spiro[2-benzofuran-1,4′-piperidin]-1′-yl)-1,3-thiazol-4(5H)-one]", "pKi hV1a": 8.5},
      {"molecule": "CC/C(=C1\\SC(N2CCC3(CC2)OC(=O)c2ccccc23)=NC1=O)c1ccc(Cl)nc1", "note": "[Example 149, 1′-{(5E)-5-[1-(6-chloropyridin-3-yl)propylidene]-4-oxo-4,5-dihydro-1,3-thiazol-2-yl}-3H-spiro[2-benzofuran-1,4′-piperidin]-3-one]", "pKi hV1a": 8.2},
      {"molecule": "C/C(=C1/SC(N2CCC3(CC2)OCc2ccccc23)=NC1=O)c1cccnc1", "note": "[Example 39, (5Z)-5-[1-(pyridin-3-yl)ethylidene]-2-(1′H,3H-spiro[2-benzofuran-1,4′-piperidin]-1′-yl)-1,3-thiazol-4(5H)-one]", "pKi hV1a": 8.9},
      {"molecule": "O=C1N=C(N2CCC3(CC2)OCc2ccccc23)S/C1=C1/CCCc2cc(Cl)ccc21", "note": "[Example 11, (5E/Z)-5-(6-chloro-3,4-dihydronaphthalen-1(2H)-ylidene)-2-(1′H,3H-spiro[2-benzofuran-1,4′-piperidin]-1′-yl)-1,3-thiazol-4(5H)-one]", "pKi hV1a": 8.4},
      {"molecule": "CC(C)/C(=C1\\SC(N2CCC3(CC2)OC(=O)c2ccccc23)=NC1=O)c1ccc(Cl)nc1", "note": "[Example 148, 1′-{(5E)-5-[1-(6-chloropyridin-3-yl)-2-methylpropylidene]-4-oxo-4,5-dihydro-1,3-thiazol-2-yl}-3H-spiro[2-benzofuran-1,4′-piperidin]-3-one]", "pKi hV1a": 6.8},
      {"molecule": "Cc1cc(/C=C2\\SC(N3CCC4(CC3)OCc3ccccc34)=NC2=O)no1", "note": "[Example 91, 5-[(5-methyl-1,2-oxazol-3-yl)methylidene]-2-(1′H,3H-spiro[2-benzofuran-1,4′-piperidin]-1′-yl)-1,3-thiazol-4(5H)-one]", "pKi hV1a": 7.5},
      {"molecule": "CC/C(=C1\\SC(N2CCC3(CC2)OCc2ccccc23)=NC1=O)c1ccc(Cl)cc1", "note": "[Example 25, (5E)-5-[1-(4-chlorophenyl)propylidene]-2-(1′H,3H-spiro[2-benzofuran-1,4′-piperidin]-1′-yl)-1,3-thiazol-4(5H)-one]", "pKi hV1a": 8.2},
      {"molecule": "C/C(=C1/SC(N2CCC3(CC2)OCc2ccccc23)=NC1=O)c1ccnc(Cl)c1", "note": "[Example 48, (5E/Z)-5-[1-(2-chloropyridin-4-yl)ethylidene]-2-(1′H,3H-spiro[2-benzofuran-1,4′-piperidin]-1′-yl)-1,3-thiazol-4(5H)-one]", "pKi hV1a": 8.6},
      {"molecule": "C/C(=C1/SC(N2CCC3(CC2)OCc2ncccc23)=NC1=O)c1ccc(Cl)nc1", "note": "[Example 162, (5E/Z)-5-[1-(6-chloropyridin-3-yl)ethylidene]-2-(1′H,7H-spiro[furo[3,4-b]pyridine-5,4′-piperidin]-1′-yl)-1,3-thiazol-4(5H)-one]", "pKi hV1a": 7.9},
      {"molecule": "O=C1N=C(N2CCC3(CC2)OC(=O)c2ccccc23)S/C1=C(/CO)c1ccccc1", "note": "[Example 143, 1′-[(5E)-5-(2-hydroxy-1-phenylethylidene)-4-oxo-4,5-dihydro-1,3-thiazol-2-yl]-3H-spiro[2-benzofuran-1,4′-piperidin]-3-one]", "pKi hV1a": 8.8},
      {"molecule": "C/C(CNC(=O)OC(C)(C)C)=C1\\SC(N2CCC3(CC2)OCc2ccccc23)=NC1=O", "note": "[Example 65, tert-butyl {(2E)-2-[4-oxo-2-(1′H,3H-spiro[2-benzofuran-1,4′-piperidin]-1′-yl)-1,3-thiazol-5(4H)-ylidene]propyl}carbamate]", "pKi hV1a": 7.7},
      {"molecule": "CC(C)(C)[Si](C)(C)OC/C(=C1\\SC(N2CCC3(CC2)OC(=O)c2ccccc23)=NC1=O)c1ccc(Cl)nc1", "note": "[Example 146, 1′-{(5Z)-5-[2-{[tert-butyl(dimethyl)silyl]oxy}-1-(6-chloropyridin-3-yl)ethylidene]-4-oxo-4,5-dihydro-1,3-thiazol-2-yl}-3H-spiro[2-benzofuran-1,4′-piperidin]-3-one]", "pKi hV1a": 7.3}
    ]}
  ]
}
